Assay results reported in PubChem BioAssay AID1645848.
Converted amounts (≈) assume the structure as drawn.

Conditions: buffer; pH 7.4; 6.0 h; 150.0 µM

Point of comparison: `C[C@@H]1Cc2c([nH]c3cc(Cl)c(F)cc23)[C@]2(N1)C(=O)Nc1ccc(Cl)cc12`, solubility kinetic 13.3 µg/mL (≈ 34.1 µM). Against it:
- Cc1ccc(C(=O)[C@H]2CC[C@@H](C(=O)Nc3ccc(S(=O)(=O)Nc4nccs4)cc3)C2)cc1C — 5.8-fold lower, 2.28 µg/mL (≈ 4.72 µM)
- Cc1ccccc1C(=O)N1CCc2cc(-c3csc(NC(=O)Cc4ccc5c(c4)OCO5)n3)ccc21 — lower, < 1 µg/mL
- O=C1NCc2ccc(-c3cc4c(ccn4Cc4cccnc4)c(C4=CCOCC4)n3)cc21 — 4.1-fold higher, 54 µg/mL (≈ 128 µM)
- O=C1CCCC2=C1C(c1ccccc1Br)N=C(Nc1nc3ccccc3o1)N2 (configuration not stated) — lower, < 1 µg/mL
- NS(=O)(=O)c1ccc(Cc2c(-c3cccc(-c4ccccc4)c3)nn(-c3nc(C(=O)O)cs3)c2CC2CC2)cc1 — higher, > 84 µg/mL
- Nc1ncc(S(=O)(=O)N2CCN(c3ccccc3)CC2)cn1 — 12-fold lower, 1.13 µg/mL (≈ 3.53 µM)
- CCN(CC)CCNC(=O)C1CCN(c2nn3cc(-c4ccc(F)cc4)nc3s2)CC1 — higher, > 66 µg/mL
- Cc1ccccc1C(=O)N1CCC(C(=O)N2CCC(N3Cc4ccccc4C3=O)CC2)CC1 — higher, > 44 µg/mL
- COc1ccc(-c2ccc(C(=O)NC3CC(c4cc(=O)[nH]c(N)n4)C3)o2)cc1 (configuration not stated) — 2.3-fold higher, 30.4 µg/mL (≈ 79.9 µM)
- Cc1ccc2c(c1)/C(=C\c1cc(Cl)c(O)c(Cl)c1)C(=O)N2 — within 1.5-fold, 15.4 µg/mL (≈ 48.1 µM)
- Cc1noc(C)c1C(=O)N1CCC2(CC1)CCN(C(c1ccccc1)c1ccccc1)CC2 — 1.7-fold higher, 22 µg/mL (≈ 49.5 µM)
- Cc1nc2nc(NC(=O)c3ccc(C(C)(C)C)cc3)[nH]n2c(=O)c1Cl — within 1.5-fold, 14.7 µg/mL (≈ 40.8 µM)
- CSc1nnc2c3ccccc3n(CCc3ccccc3)c2n1 — lower, < 1 µg/mL
- NC(=O)N1CCCC(C(=O)N2CCCN(c3ccc(F)cc3)CC2)C1 (configuration not stated) — higher, > 51 µg/mL
- CCc1cccc(NC(=O)c2cc(-c3ccc[nH]3)n[nH]2)c1 — 2.9-fold lower, 4.59 µg/mL (≈ 16.4 µM)
- CCCCC(C)/C=C(C)/C=C(\C)C(=O)NC1=CC(O)(/C=C/C=C/C=C/C(=O)NC2=C(O)CCC2=O)C2OC2C1=O (configuration not stated) — higher, > 81 µg/mL
- CC1CCN(C(=O)c2ccc(-c3ccc(N4CCSCC4)nc3)cc2)CC1 — 5.5-fold lower, 2.44 µg/mL (≈ 6.4 µM)
- Cc1noc(C)c1-c1ccc2ncnc(N3CCC(C(=O)O)CC3)c2c1 — higher, > 52 µg/mL
- O=C(Nc1cccc(F)c1)c1cc(-c2ccc[nH]2)n[nH]1 — 7.5-fold lower, 1.77 µg/mL (≈ 6.57 µM)
- CC(C)Oc1ccc(C(=O)Nc2ccc3c(c2)CCCN3C(=O)c2cccs2)cc1 — lower, < 1 µg/mL
- Fc1cccc(-c2ccc(Nc3nc(-c4ccncc4)nc4ccccc34)cc2F)c1 — lower, < 1 µg/mL
- CC1=C[C@@H](CNCc2cccnc2)[C@H](C(C)C)C[C@H]1Cc1nnc(-c2ccc([N+](=O)[O-])cc2)o1 — higher, > 68 µg/mL
- COc1cccc(NC(=O)c2cccc3c(=O)c4c([nH]c23)CCCC4)c1 — lower, < 1 µg/mL
- CCC1=Nc2cc(C(=O)NCCCOC)ccc2Sc2ccc(Br)cc21 — 2-fold lower, 6.63 µg/mL (≈ 15.3 µM)
- Cc1ccc(-n2nc3c(N4CCCC(C(=O)NCc5ccccc5C)C4)nnc(C)c3c2C)cc1 (configuration not stated) — lower, < 1 µg/mL
- CC1CCCCN1c1ncnc(N)c1[N+](=O)[O-] (configuration not stated) — higher, > 35 µg/mL
- O=C(c1cnc(N2CCCCC2)c2ccccc12)N1CCN(c2ccccn2)CC1 — higher, > 59 µg/mL
- Cc1ccc(-c2ccc(CNc3nc(-c4ccccc4C(C)C)ncc3F)cc2)cn1 — lower, < 1 µg/mL
- OC(CCN1CCCCC1)c1ccc(-c2ccccc2)cc1 (configuration not stated) — higher, > 44 µg/mL
- CC(=O)c1c(C)[nH]c(C(=O)Nc2ccc(C)c(S(=O)(=O)Nc3ccc(Br)cc3)c2)c1C — lower, < 1 µg/mL
- CC(=O)c1cccc(-c2csc3ncnc(Sc4nnnn4C)c23)c1 — within 1.5-fold, 14.1 µg/mL (≈ 38.2 µM)
- COc1ccc(-c2nc3ccccc3s2)cc1NC(=O)c1ccc(F)cc1 — lower, < 1 µg/mL
- O=S(=O)(Nc1nccs1)c1ccc(NCc2cccc3cc[nH]c23)cc1 — 1.5-fold higher, 20.5 µg/mL (≈ 53.2 µM)
- COc1ccc(C(=O)N2CCC3(CC2)CN(c2cccc(-c4ccccc4)c2)C3)cc1 — lower, < 1 µg/mL
- O=C(NCCCNc1nc(Nc2cccc(CN3CCOCC3)c2)ncc1C1CC1)C1CCC1 — higher, > 69 µg/mL
- O=C(Nc1nc(-c2ccccc2)cs1)c1ccncc1NS(=O)(=O)c1ccc(-c2ccccc2)cc1 — lower, < 1 µg/mL
- COc1cc(-c2nc(Nc3ccc(F)c(F)c3)c3ccccc3n2)c(F)cn1 — lower, < 1 µg/mL
- CCN1CCN(CC(=O)Nc2ccc(-c3cccc4c(=O)cc(N5CCOCC5)oc34)c3sc4ccccc4c23)CC1 — 4.8-fold higher, 63.6 µg/mL (≈ 109 µM)
- CCOc1ccc(-c2csc(N3CCC(C(N)=O)CC3)n2)cc1 — within 1.5-fold, 11 µg/mL (≈ 33.2 µM)
- NC(=O)C1CCN(c2nc(-c3ccc(N4CCCCC4)nc3)cs2)CC1 — 3.3-fold higher, 43.5 µg/mL (≈ 117 µM)
- Cc1ccc(S(=O)(=O)N2CCN(C(=O)c3cc4c(s3)CCC4)CC2)cc1 — lower, < 1 µg/mL
- Cc1cc(F)ccc1-c1nc(NCCN=C(N)NC#N)nc2c1ccc(=O)n2-c1c(F)cccc1F — 3-fold higher, 39.5 µg/mL (≈ 80.2 µM)
- O=C(CCCCCCC(=O)Nc1ccccc1)NO — higher, > 39 µg/mL
- Cc1cccc(C)c1C(=O)Nc1cccc([S+](=O)([O-])N(C)C)c1 — 3.1-fold higher, 41.4 µg/mL (≈ 124 µM)
- CCOc1ccc(CCNC(=O)c2cc3ccncc3n2Cc2cccc(C)c2)cc1OCC — 4.2-fold higher, 55.7 µg/mL (≈ 122 µM)
- Cc1ccccc1C(=O)Nc1ccc2c(c1)CCCN2C(=O)c1cccs1 — 1.9-fold lower, 7.15 µg/mL (≈ 19 µM)
- Cc1cc(Oc2ccc(N)cn2)ccc1Cl — higher, > 35 µg/mL
- CC(C)Oc1ccc(-c2ccc(=O)n(CC(=O)NCCc3ccccc3)n2)cc1 — within 1.5-fold, 16.8 µg/mL (≈ 43 µM)
- COc1cc(NS(=O)(=O)c2ccc(C)cc2)c(C(=O)Nc2nc(-c3ccccc3)cs2)cc1OC — lower, < 1 µg/mL
- CCCCOc1ccc(C(=O)N2CCC(c3n[nH]c(=O)n3-c3ccc(C)cc3)CC2)cc1 — lower, < 1 µg/mL
- CN1CCCC(CC2c3ccccc3Sc3ccccc32)C1.Cl (configuration not stated) — higher, > 46 µg/mL
- O=C(c1cccc(F)c1)N1CCC2(CCN(Cc3cc(C(F)(F)F)cc(C(F)(F)F)c3)CC2)CC1 — 3.7-fold lower, 3.62 µg/mL (≈ 7.2 µM)
- O=C(C1CC(=O)N(c2n[nH]c3ccccc23)C1)N1CCC(c2noc3cc(F)ccc23)CC1 (configuration not stated) — 5.6-fold lower, 2.36 µg/mL (≈ 5.28 µM)
- Cc1cccc(N2CCN(C(=O)Cn3ncc4c3-c3ccccc3OC4)CC2)c1C — 3.5-fold lower, 3.85 µg/mL (≈ 9.57 µM)
- Cc1ccc(C(=O)N2CCc3c(nc4cc(-c5ccccc5)[nH]n4c3=O)C2)cn1 — 1.5-fold lower, 8.67 µg/mL (≈ 22.5 µM)
- O=S(=O)(Nc1cnc2ccccc2c1)c1ccc(NCc2ccc(Br)cc2O)cc1 — lower, < 1 µg/mL
- COc1ccccc1CNc1ccc(S(=O)(=O)Nc2nccs2)cc1 — 2.8-fold higher, 37.4 µg/mL (≈ 99.7 µM)
- Cc1c(NC2=C(Cl)C(=O)N(c3ccccc3)C2=O)c(=O)n(-c2ccccc2)n1C — lower, < 1 µg/mL
- Cc1ccc(S(=O)(=O)n2cc(C(=O)Nc3ccc(-c4ccccc4)cc3)c3ccccc32)cc1 — lower, < 1 µg/mL
- CO[C@@H]1[C@H](N(C)C(=O)c2ccccc2)C[C@H]2O[C@]1(C)n1c3ccccc3c3c4c(c5c6ccccc6n2c5c31)C(=O)NC4 — lower, < 1 µg/mL
- CC(=O)c1c(C)[nH]c(C(=O)Nc2cccc([S+](=O)([O-])Nc3cccnc3)c2)c1C — higher, > 61 µg/mL
- O=C(Nc1ccc(C(=O)N2CCCC2)cc1)c1ccccc1F — higher, > 46 µg/mL
- CC(C)N(CCCNC(=O)Nc1ccc(C(C)(C)C)cc1)C[C@H]1O[C@@H](n2ccc3c(N)ncnc32)[C@H](O)[C@@H]1O — higher, > 80 µg/mL
- Nc1c(C(=O)Nc2ccc(Cl)c(C(F)(F)F)c2)sc2nc3c(cc12)N1CCC3CC1 — lower, < 1 µg/mL
- C[C@@H]1CN(CC(=O)N2CC(C)(C)c3ncc(Cc4ccc(F)cc4)cc32)[C@@H](CN2CCOC[C@H]2C)CN1 — higher, > 75 µg/mL
- O=C1CCCC2=C1C1(CCSCC1)N=C(Nc1nc3ccccc3o1)N2 — lower, < 1 µg/mL
- Nc1nc2c(s1)C(c1cccc(F)c1F)CC(=O)N2 (configuration not stated) — 1.6-fold lower, 8.33 µg/mL (≈ 29.6 µM)
- CC1=C(C(=O)Nc2ccccc2Cl)C(c2ccccc2Br)N=C(Nc2nc3ccccc3o2)N1 (configuration not stated) — lower, < 1 µg/mL
- CCN(CC)C(=O)N1c2ccccc2C=Cc2ccccc21 — within 1.5-fold, 15.9 µg/mL (≈ 54.5 µM)
- O=S(=O)(Nc1cnc2ccccc2c1)c1ccc(NCc2cccc(Cl)c2O)cc1 — 7.2-fold lower, 1.84 µg/mL (≈ 4.18 µM)
- COc1cc2c(c(OC)c1OC)-c1ccc(OC)c(=O)cc1[C@@H](NC(C)=O)CC2 — 1.6-fold higher, 21 µg/mL (≈ 52.5 µM)
- O=[N+]([O-])c1cccc(CNc2ccc(S(=O)(=O)Nc3nccs3)cc2)c1O — within 1.5-fold, 10.3 µg/mL (≈ 25.2 µM)
- c1ccc(Nc2cc3c(cn2)CN(Cc2c[nH]c4ccccc24)CCN3)cc1 — 3.3-fold higher, 43.7 µg/mL (≈ 118 µM)
- O=C(Nc1ncc(Cc2ccc(C(F)(F)F)cc2)s1)c1cnc(-c2ccccc2)s1 — lower, < 1 µg/mL
- Cc1ccc(S(=O)(=O)Nc2cnccc2C(=O)Nc2nc(-c3cc(Br)cs3)cs2)cc1 — 14-fold lower, 0.958 µg/mL (≈ 1.79 µM)
- O=[S+]([O-])(Nc1nccs1)c1ccc(NCc2ccc(Cl)c(Cl)c2)cc1 — lower, < 1 µg/mL
- N#C/C(=C\c1ccc(Sc2ccc(Cl)cc2)o1)c1nc2ccccc2[nH]1 — lower, < 1 µg/mL
- NC(=O)C1CCN(c2nc(-c3ccc(Oc4ccccc4)cc3)cs2)CC1 — lower, < 1 µg/mL
- CC(Nc1nc(N2CCN(S(C)(=O)=O)CC2)nc2ccccc12)c1ccccc1 (configuration not stated) — within 1.5-fold, 11 µg/mL (≈ 26.8 µM)
- OCc1ccc(-c2nn(Cc3ccccc3)c3ccccc23)o1 — 4.9-fold lower, 2.72 µg/mL (≈ 8.94 µM)
- O=c1cc(-c2nc(Nc3ccc(F)c(F)c3)c3ccccc3n2)cc[nH]1 — within 1.5-fold, 11.9 µg/mL (≈ 34.1 µM)
- Cc1cc2ccccc2n1CC(=O)NC1CCCCC1 — 3.9-fold lower, 3.41 µg/mL (≈ 12.6 µM)
- COc1ccc(NS(=O)(=O)c2ccc(C)cc2)c(C(=O)Nc2nc(-c3ccccc3)cs2)c1 — lower, < 1 µg/mL
- Cc1ccc(NS(=O)(=O)c2ccccc2C(=O)Nc2nc(-c3ccccc3)cs2)cc1 — lower, < 1 µg/mL
- CC1(C)CNc2cc(NC(=O)c3cccnc3NCc3ccncc3)ccc21 — 3.1-fold higher, 41.8 µg/mL (≈ 112 µM)
- O=C1NCc2cc(-c3cc4c(ccn4Cc4ccncc4)c(N4CCOCC4)n3)ccc21 — higher, > 94 µg/mL
- O=C1CCCC2=C1C(c1ccccc1C(F)(F)F)N=C(Nc1nc3ccccc3o1)N2 (configuration not stated) — lower, < 1 µg/mL
- Cc1cccc(-n2c(C)cc(C=C(C#N)C#N)c2C)c1 — lower, < 1 µg/mL
- CCN(c1ccccc1)S(=O)(=O)c1cc(C(=O)Nc2ccc(Br)cc2)ccc1F — lower, < 1 µg/mL
- O=C1C(SCCO)=C(SCCO)C(=O)c2ccccc21 — higher, > 31 µg/mL
- CC(C)c1ccccc1-c1ncc(F)c(NC(C)(C)c2ccc(-c3cccnc3)cc2)n1 — lower, < 1 µg/mL
- Cc1ccc2oc(NC3=NC(c4[nH]ncc4Cl)C4=C(CCCC4=O)N3)nc2c1 (configuration not stated) — 9.9-fold lower, 1.35 µg/mL (≈ 3.41 µM)
- CCOc1ccc(CCNC(=O)c2cc3ncccc3n2Cc2cccc(C)c2)cc1OCC — 2.7-fold higher, 36.5 µg/mL (≈ 79.7 µM)
- C#CCNC(=O)c1nc(-c2cccnc2)c2ccccn12 — higher, > 61 µg/mL
- O=C(c1ccccc1)N1CCC(c2nn(-c3ccc(F)cc3)c(=O)[nH]2)CC1 — higher, > 54 µg/mL
- COc1ccc(-n2nc(C3CCCN(C(=O)c4ccc(C)cc4)C3)[nH]c2=O)cc1 (configuration not stated) — 3-fold higher, 39.4 µg/mL (≈ 100 µM)
